MIC data for 14 compounds are collected here from DBAASP.

What all share (assay): ≥ marks a high value that may be exact or a test limit, other limits are often not marked, values filed in µg/mL are converted to µM
Assay [1] has as its system Staphylococcus aureus.
Assay [2] relates to Escherichia coli.
Assay [3] concerns Bacillus cereus.
The subject of assay [4] is Pseudomonas aeruginosa.
The subject of assay [5] is Staphylococcus epidermidis ATCC 12228.
Assay [6] has as its system Escherichia coli ATCC 25922.
Assay [7] concerns Pseudomonas aeruginosa PAO1.
The subject of assay [8] is Escherichia coli UB1005.
For assay [9], the system named is Staphylococcus aureus ATCC 25923.

Each structure is given as a SMILES string. In brackets after ≈: the same amount, converted by molar mass.

As a reminder, the MIC is the least concentration at which growth counts as inhibited. A higher MIC goes with a need for much substance. As to `CC[C@H](C)[C@H](NC(=O)[C@H](Cc1c[nH]c2ccccc12)NC(=O)[C@H](CCCCN)NC(=O)[C@@H](NC(=O)[C@H](CC(C)C)NC(=O)[C@H](CCCCN)NC(=O)CNC(=O)[C@@H](NC(=O)[C@@H](NC(=O)[C@H](CO)NC(=O)[C@@H](NC(=O)[C@@H](NC(=O)[C@H](CCCCN)NC(=O)[C@H](CCC(N)=O)NC(=O)[C@H](C)N)[C@@H](C)CC)[C@@H](C)CC)[C@@H](C)O)[C@@H](C)CC)C(C)C)C(=O)N[C@H](C(=O)N[C@@H](CCCCN)C(=O)N[C@H](C(=O)N[C@H](C(=O)N[C@@H](CC(N)=O)C(=O)N[C@@H](CCCCN)C(=O)N[C@@H](Cc1ccccc1)C(=O)N[C@H](C(=O)N[C@@H](CCCCN)C(=O)N[C@@H](CCCCN)C(=O)O)[C@@H](C)O)C(C)C)[C@@H](C)O)[C@@H](C)CC` [AQKIISTIGKLVKWIIKTVNKFTKK], the figures for the MIC in [1] and in assay [2] were 10.3 µM (≈ 29.7 µg/mL) and 2.5 µM (≈ 7.22 µg/mL), respectively.

Consider `CC(C)[C@H](NC(=O)CNC(=O)CNC(=O)[C@@H](NC(=O)[C@@H](N)Cc1ccccc1)C(C)C)C(=O)N[C@@H](C)C(=O)N[C@@H](CO)C(=O)N[C@@H](CCCCN)C(=O)N[C@H](C(=O)N[C@H](C(=O)N1CCC[C@H]1C(=O)N[C@@H](CO)C(=O)N[C@H](C(=O)N[C@@H](Cc1ccc(O)cc1)C(=O)N[C@@H](CS)C(=O)N[C@@H](CCCCN)C(=O)N[C@H](C(=O)N[C@@H](CO)C(=O)N[C@@H](CCCCN)C(=O)N[C@@H](CCCCN)C(=O)O)C(C)C)C(C)C)C(C)C)C(C)C` [FVGGVASKVVPSVYCKVSKK], for which the MIC in assay [3] is ≥ 123 µM; in assay [2] it was > 123 µM.

Turning to `CC[C@H](C)[C@H](NC(=O)CN)C(=O)NCC(=O)N[C@@H](Cc1cnc[nH]1)C(=O)N[C@@H](Cc1ccccc1)C(=O)N[C@@H](CC(C)C)C(=O)N[C@@H](Cc1cnc[nH]1)C(=O)N[C@@H](CCCCN)C(=O)N[C@H](C(=O)N[C@@H](CCCCN)C(=O)N[C@@H](CO)C(=O)N[C@@H](Cc1ccccc1)C(=O)NCC(=O)N[C@@H](CCCCN)C(=O)N[C@@H](CO)C(=O)N[C@@H](Cc1c[nH]c2ccccc12)C(=O)N[C@H](C(=O)NCC(=O)N[C@@H](CCC(=O)O)C(=O)N[C@H](C(=O)N[C@@H](CCSC)C(=O)N[C@@H](CC(N)=O)C(=O)N[C@@H](CO)C(N)=O)[C@@H](C)CC)[C@@H](C)CC)C(C)C` [GIGHFLHKVKSFGKSWIGEIMNS], the MIC in assay [4] amounted to 19 µM (≈ 48.9 µg/mL); in assay [1], 76 µM (≈ 195 µg/mL); in [2], 19 µM (≈ 48.9 µg/mL).

With `CC[C@H](C)[C@H](NC(=O)CN)C(=O)N[C@@H](CCCCN)C(=O)N[C@@H](CCCCN)C(=O)N[C@@H](Cc1c[nH]c2ccccc12)C(=O)N[C@@H](CC(C)C)C(=O)N[C@@H](Cc1cnc[nH]1)C(=O)N[C@@H](CO)C(=O)N[C@@H](C)C(=O)N[C@@H](CCCCN)C(=O)N[C@@H](CCCCN)C(=O)N1CCC[C@H]1C(=O)NCC(=O)N[C@@H](CCCCN)C(=O)N[C@@H](CCCCN)C(=O)N[C@@H](Cc1ccccc1)C(=O)N[C@H](C(=O)N[C@@H](CCCCN)C(=O)N[C@@H](CCCCN)C(=O)N[C@H](C(=O)N[C@@H](CCSC)C(=O)N[C@@H](CC(N)=O)C(=O)N[C@@H](CO)C(N)=O)[C@@H](C)CC)C(C)C` [GIKKWLHSAKKPGKKFVKKIMNS], the MIC in [5] and in [6] was 5 µM (≈ 13.3 µg/mL) in each case.

`CC[C@H](C)[C@H](NC(=O)[C@@H](NC(=O)[C@H](CCCCN)NC(=O)[C@H](C)NC(=O)[C@H](CC(C)C)NC(=O)[C@H](CCCCN)NC(=O)[C@H](CCCCN)NC(=O)CN)[C@@H](C)O)C(=O)N[C@@H](C)C(=O)N[C@@H](CCCCN)C(=O)N[C@@H](CCC(=O)O)C(=O)N[C@H](C(=O)N[C@@H](C)C(=O)N[C@@H](CCCCN)C(=O)N[C@@H](CCC(N)=O)C(=O)NCC(=O)N[C@@H](C)C(=O)N[C@@H](CCCCN)C(=O)N[C@@H](Cc1ccccc1)C(=O)N[C@@H](C)C(=O)O)C(C)C` [GKKLAKTIAKEVAKQGAKFA]: the values for the MIC in assay [3] and in [2] were ≥ 123 µM and 30.7 µM (≈ 64 µg/mL), respectively.

In the case of `CC[C@H](C)[C@H](NC(=O)[C@H](Cc1ccccc1)NC(=O)[C@H](CO)NC(=O)[C@H](CCCCN)NC(=O)[C@H](Cc1ccccc1)NC(=O)[C@@H](N)CCCCN)C(=O)N[C@@H](CCCCN)C(=O)N[C@@H](CCCCN)C(=O)N[C@@H](CC(C)C)C(=O)N[C@H](C(=O)N[C@@H](CO)C(=O)N[C@@H](CCCCN)C(=O)N[C@@H](Cc1ccccc1)C(=O)N[C@@H](CC(C)C)C(=O)N[C@@H](Cc1cnc[nH]1)C(=O)N[C@@H](CO)C(=O)N[C@@H](C)C(=O)N[C@@H](CCCCN)C(=O)N[C@@H](CCCCN)C(=O)N[C@@H](Cc1ccccc1)C(N)=O)[C@@H](C)O` [KFKSFIKKLTSKFLHSAKKF], the MIC in [4] was found to be 5.18 µM (≈ 12.5 µg/mL).

Regarding `CC[C@H](C)[C@H](NC(=O)[C@H](C)NC(=O)[C@H](CC(C)C)NC(=O)[C@H](CCCCN)NC(=O)[C@H](CC(C)C)NC(=O)[C@@H](NC(=O)[C@@H](NC(=O)[C@@H](N)CCCCN)[C@@H](C)CC)[C@@H](C)O)C(=O)N[C@@H](CCCCN)C(=O)N[C@@H](C)C(=O)N[C@@H](Cc1c[nH]c2ccccc12)C(=O)N[C@@H](CCCCN)C(=O)N[C@@H](CC(C)C)C(=O)N[C@@H](C)C(=O)N[C@@H](CC(C)C)C(=O)N[C@@H](CCCCN)C(=O)N[C@@H](C)C(=O)N[C@@H](C)C(N)=O` [KITLKLAIKAWKLALKAA], the MIC in [4] was determined as 21.2 µM (≈ 42 µg/mL); in assay [1] it was 5.3 µM (≈ 10.5 µg/mL); in [2], 5.3 µM (≈ 10.5 µg/mL).

Take `CC[C@H](C)[C@H](NC(=O)[C@H](Cc1c[nH]c2ccccc12)NC(=O)[C@H](CCCCN)NC(=O)[C@@H](NC(=O)[C@H](CC(C)C)NC(=O)[C@@H](N)CCCCN)C(C)C)C(=O)N[C@H](C(=O)N[C@@H](CCCCN)C(=O)N[C@H](C(=O)N[C@H](C(=O)N[C@@H](CC(N)=O)C(=O)N[C@@H](CCCCN)C(=O)N[C@@H](Cc1ccccc1)C(=O)N[C@H](C(=O)N[C@@H](CCCCN)C(=O)N[C@@H](CCCCN)C(=O)O)[C@@H](C)O)C(C)C)[C@@H](C)O)[C@@H](C)CC` [KLVKWIIKTVNKFTKK]: the MIC in assay [1] was found to be 22 µM (≈ 43.4 µg/mL); in assay [2], 3.5 µM (≈ 6.91 µg/mL).

With `CC[C@H](C)[C@H](NC(=O)[C@H](Cc1ccccc1)NC(=O)[C@H](CO)NC(=O)[C@H](CCCCN)NC(=O)[C@H](Cc1c[nH]c2ccccc12)NC(=O)[C@@H](N)CCCCN)C(=O)N[C@@H](CCCCN)C(=O)N[C@@H](CCCCN)C(=O)N[C@@H](CC(C)C)C(=O)N[C@H](C(=O)N[C@@H](CC(=O)O)C(=O)N[C@@H](CCCCN)C(=O)N[C@@H](Cc1ccccc1)C(=O)N[C@@H](CC(C)C)C(=O)N[C@@H](Cc1cnc[nH]1)C(=O)N[C@@H](CO)C(=O)N[C@@H](C)C(=O)N[C@@H](CCCCN)C(=O)N[C@@H](CCCCN)C(=O)N[C@@H](Cc1ccccc1)C(N)=O)[C@@H](C)O` [KWKSFIKKLTDKFLHSAKKF], in assay [4], the MIC came to 10.1 µM (≈ 25 µg/mL).

Turning to `CC[C@H](C)[C@H](NC(=O)[C@H](Cc1ccccc1)NC(=O)[C@H](CO)NC(=O)[C@H](CCCCN)NC(=O)[C@H](Cc1c[nH]c2ccccc12)NC(=O)[C@@H](N)CCCCN)C(=O)N[C@@H](CCCCN)C(=O)N[C@@H](CCCCN)C(=O)N[C@@H](CC(C)C)C(=O)N[C@H](C(=O)N[C@@H](CO)C(=O)N[C@@H](CCCCN)C(=O)N[C@@H](C)C(=O)N[C@@H](CC(C)C)C(=O)N[C@@H](Cc1cnc[nH]1)C(=O)N[C@@H](CO)C(=O)N[C@@H](C)C(=O)N[C@@H](CCCCN)C(=O)N[C@@H](CCCCN)C(=O)N[C@@H](Cc1ccccc1)C(N)=O)[C@@H](C)O` [KWKSFIKKLTSKALHSAKKF], the MIC in [4] was 2.63 µM (≈ 6.25 µg/mL).

For `CC[C@H](C)[C@H](NC(=O)[C@H](Cc1ccccc1)NC(=O)[C@H](CO)NC(=O)[C@H](CCCCN)NC(=O)[C@H](Cc1c[nH]c2ccccc12)NC(=O)[C@@H](N)CCCCN)C(=O)N[C@@H](CCCCN)C(=O)N[C@@H](CCCCN)C(=O)N[C@@H](CC(C)C)C(=O)N[C@H](C(=O)N[C@@H](CO)C(=O)N[C@@H](CCCCN)C(=O)N[C@@H](Cc1ccccc1)C(=O)N[C@@H](CC(C)C)C(=O)N[C@@H](Cc1cnc[nH]1)C(=O)N[C@@H](CO)C(=O)N[C@@H](C)C(=O)N[C@@H](CC(N)=O)C(=O)N[C@@H](CCCCN)C(=O)N[C@@H](Cc1ccccc1)C(N)=O)[C@@H](C)O` [KWKSFIKKLTSKFLHSANKF], in [4], the MIC came out at 2.56 µM (≈ 6.25 µg/mL).

As to `CC(C)C[C@H](NC(=O)[C@H](CC(N)=O)NC(=O)[C@H](Cc1c[nH]c2ccccc12)NC(=O)[C@H](CCCN=C(N)N)NC(=O)[C@H](C)NC(=O)[C@H](CCCCN)NC(=O)[C@H](CCCCN)NC(=O)CNC(=O)[C@H](CC(C)C)NC(=O)[C@H](Cc1ccc(O)cc1)NC(=O)[C@H](Cc1ccc(O)cc1)NC(=O)CNC(=O)[C@H](Cc1c[nH]c2ccccc12)NC(=O)[C@@H](N)CO)C(=O)O` [SWGYYLGKKARWNL], in assay [5], the minimal inhibitory concentration (MIC) is > 50 µM.

In the case of `CC(C)C[C@H](NC(=O)[C@H](Cc1ccc(O)cc1)NC(=O)[C@@H]1CCCN1C(=O)[C@@H]1CCCN1C(=O)[C@H](CCCCN)NC(=O)[C@@H]1CCCN1C(=O)[C@@H](N)C(C)C)C(=O)N1CCC[C@H]1C(=O)N[C@@H](CCCN=C(N)N)C(=O)N1CCC[C@H]1C(=O)N[C@@H](CCCN=C(N)N)C(=O)N1CCC[C@H]1C(=O)N1CCC[C@H]1C(=O)N[C@@H](CCCN=C(N)N)C(=O)N[C@@H](CCCN=C(N)N)C(=O)N[C@@H](CCCCN)C(=O)N[C@@H](Cc1ccc(O)cc1)C(=O)N[C@@H](CC(N)=O)C(=O)N[C@@H](CCCN=C(N)N)C(N)=O` [VPKPPYLPRPRPPRRKYNR], the values for the MIC in [7], in assay [8] and in [9] were 13.4 µM (≈ 32 µg/mL), 0.544 µM (≈ 1.3 µg/mL) and 1.68 µM (≈ 4 µg/mL), respectively.

Take `CC(C)C[C@H](NC(=O)[C@H](Cc1ccccc1)NC(=O)[C@@H]1CCCN1C(=O)[C@H](Cc1ccccc1)NC(=O)[C@H](Cc1ccccc1)NC(=O)[C@H](Cc1ccccc1)NC(=O)[C@@H]1CCCN1C(=O)[C@H](Cc1ccccc1)NC(=O)[C@H](CCCN=C(N)N)NC(=O)[C@H](CCCN=C(N)N)NC(=O)[C@@H](N)C(C)C)C(=O)N[C@@H](CCCN=C(N)N)C(=O)N[C@@H](CCCN=C(N)N)C(N)=O` [VRRFPFFFPFLRR]: the MIC in assay [1] and in assay [2] was 3.36 µM (≈ 6 µg/mL) throughout.
